Assays:
[1] = system: Pseudomonas aeruginosa strain M2; assay: Protection of neutropenic CD-1 mice challenged with Pseudomonas aeruginosa; assay type: in vivo; parameters: Survival post bacterial challenge, surviving mice: reference not given here; details: for Survival (%) post bacterial challenge: PBS 8
Outline: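 Neutropenia induced by three i.p. cyclophosphamide doses ([…], alternate days); mice then infected i.p. with 200-300 organisms/mouse. Peptides (200 µg/mouse = 8 mg/kg) in buffered citrate given i.p. at 30 min (single) or 30 min and 16 hrs (double) post-challenge; PBS control; mean of 2 experiments.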

P. aeruginosa (H103) = assay: Synergy study (checkerboard titration) with hen white lysozyme; assay type: cell-based; details: for Lowest [CP] showing synergy: cationic peptide concentration, combined with lysozyme; for Lowest [Lyso] showing synergy: lysozyme concentration, combined with the peptide
E. coli [2] = assay: as above; assay type: cell-based; details: for Lowest [CP] showing synergy: cationic peptide concentration, combined with lysozyme; for Lowest [Lyso] showing synergy: lysozyme concentration, combined with the peptide
Salmonella typhi = assay: as above; assay type: cell-based; details: for Lowest [CP] showing synergy: cationic peptide concentration, combined with lysozyme; for Lowest [Lyso] showing synergy: lysozyme concentration, combined with the peptide
E. coli [3] = assay: MIC, broth microdilution assay in polypropylene microtiter trays; assay type: cell-based; details: average of three separate experiments
Outline: (§1)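 Each peptide's inhibitory endpoint is based on optical density: absence of any OD change for the chosen duration defines the minimal inhibitory concentration.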

S. aureus K147 = assay: as above; assay type: cell-based; details: average of three separate experiments
Outline: as §1

S. aureus = assay: as above; assay type: cell-based; details: average of three separate experiments
Outline: as §1

P. aeruginosa = assay: as above; assay type: cell-based; details: average of three separate experiments
Outline: as §1

[4] = system: mutant (Nal B, H744) of P. aeruginosa; assay: microbe, parasite or virus in culture; assay type: cell-based; details: for (B) MIC of Cipro when combined with peptide: ciprofloxacin with peptide at concentration (A); for (B) MIC of Cipro when combined with peptide / FIC index / (A) Peptide doses together with Cipro: Nal B, H744; for FIC index: peptide + ciprofloxacin; for MIC A MIC of Peptides: peptide alone, P. aeruginosa mutant Nal B, H744 (Table 5); for (A) Peptide doses together with Cipro: peptide concentration in combination with ciprofloxacin
Outline: (§2)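 Checkerboard titration in Mueller Hinton broth, peptide against carbenicillin or ciprofloxacin, inoculum 10 μl of 10^−4 dilution of overnight culture, 18-24 h at 37 °C. Combination MIC is the lowest concentration reducing growth >50%. FIC index = A/MIC A + B/MIC B, with ≤~0.5 synergy, 1.0 additivity, >1.0 antagonism.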

[5] = system: β-lactamase derepressed mutant (H547) of P. aeruginosa; assay: microbe, parasite or virus in culture; assay type: cell-based; details: P. aeruginosa H547; for (B) MIC of Carb when combined with peptide: Carbenicillin with peptide at concentration (A); for MIC A MIC of Peptides: peptide alone; for (A) Peptide doses together with Carb: peptide concentration in combination with Carbenicillin
Outline: as §2

[6] = double dose (200 μg per mouse i.p. at 30 min and 16 hrs), 16 hr
[7] = single dose (200 μg per mouse i.p. at 30 min), 16 hr

CC[C@H](C)[C@H](NC(=O)CNC(=O)[C@@H](NC(=O)[C@H](CCCCN)NC(=O)[C@H](CCCCN)NC(=O)[C@H](Cc1ccccc1)NC(=O)[C@H](CC(C)C)NC(=O)[C@H](CCCCN)NC(=O)[C@H](Cc1c[nH]c2ccccc12)NC(=O)[C@H](CC(C)C)NC(=O)[C@@H](N)CCCCN)[C@@H](C)CC)C(=O)NCC(=O)N[C@@H](C)C(=O)N[C@H](C(=O)N[C@@H](CC(C)C)C(=O)N[C@@H](CCCCN)C(=O)N[C@H](C(=O)N[C@@H](CC(C)C)C(=O)N[C@@H](CCCCN)C(=O)N[C@H](C(=O)N[C@@H](CC(C)C)C(=O)N[C@H](C(=O)N[C@H](C(=O)NCC(=O)N[C@@H](CC(C)C)C(=O)N1CCC[C@H]1C(=O)N[C@@H](C)C(=O)N[C@@H](CC(C)C)C(=O)N[C@@H](CCCCN)C(=O)N[C@@H](CC(C)C)C(=O)N[C@H](C(=O)N[C@@H](CC(C)C)C(=O)N[C@@H](CCCCN)C(=O)O)[C@@H](C)O)[C@@H](C)O)[C@@H](C)O)C(C)C)C(C)C)C(C)C [CM7]
Survival post bacterial challenge, surviving mice [1, 6]: 12 | Survival post bacterial challenge, surviving mice ([1]; double dose, 24 hr): 12 | Survival post bacterial challenge, surviving mice ([1]; double dose, 41 hr): 8 | Survival post bacterial challenge, surviving mice ([1]; double dose, 48 hr): 6 | Survival post bacterial challenge, surviving mice ([1]; double dose, 64 hr): 5 | Survival (%) post bacterial challenge ([1]; double dose, 64 hr): 41% | Survival post bacterial challenge, surviving mice ([1]; double dose, 72 hr): 5 | Survival (%) post bacterial challenge ([1]; double dose, 72 hr): 41% | Survival post bacterial challenge, surviving mice ([1]; double dose, 96 hr): 5 | Survival (%) post bacterial challenge ([1]; double dose, 96 hr): 41% | Survival post bacterial challenge, surviving mice [1, 7]: 15 | Survival post bacterial challenge, surviving mice ([1]; single dose, 24 hr): 15 | Survival post bacterial challenge, surviving mice ([1]; single dose, 41 hr): 13 | Survival post bacterial challenge, surviving mice ([1]; single dose, 48 hr): 13 | Survival post bacterial challenge, surviving mice ([1]; single dose, 64 hr): 12 | Survival (%) post bacterial challenge ([1]; single dose, 64 hr): 80% | Survival post bacterial challenge, surviving mice ([1]; single dose, 72 hr): 11 | Survival (%) post bacterial challenge ([1]; single dose, 72 hr): 73% | Survival post bacterial challenge, surviving mice ([1]; single dose, 96 hr): 11 | Survival (%) post bacterial challenge ([1]; single dose, 96 hr): 73% | FIC for combination of cationic peptide and lysozyme (P. aeruginosa (H103)): 0.75 | Lowest [CP] showing synergy (P. aeruginosa (H103)): 2.6 µg/mL | Lowest [Lyso] showing synergy (P. aeruginosa (H103)): 250 µg/mL | FIC for combination of cationic peptide and lysozyme (E. coli [2]): 0.31 | Lowest [CP] showing synergy (E. coli [2]): 0.65 µg/mL | Lowest [Lyso] showing synergy (E. coli [2]): 7.8 µg/mL | FIC for combination of cationic peptide and lysozyme (Salmonella typhi): 0.52 | Lowest [CP] showing synergy (Salmonella typhi): 2.61 µg/mL | Lowest [Lyso] showing synergy (Salmonella typhi): 15.6 µg/mL | MIC E. coli (E. coli [3]): 2 µg/mL | MIC S. aureus K147 (S. aureus K147): 4 to 8 µg/mL | MIC S. aureus (S. aureus): 8 µg/mL | MIC P. aeruginosa (P. aeruginosa): 8 µg/mL | (B) MIC of Cipro when combined with peptide [4]: .125 µg/mL | FIC index [4]: .63 | MIC A MIC of Peptides [4]: 16 µg/mL | (A) Peptide doses together with Cipro [4]: 2 µg/mL | (B) MIC of Carb when combined with peptide [5]: 64 µg/mL | MIC A MIC of Peptides [5]: 32 µg/mL | (A) Peptide doses together with Carb [5]: 2 µg/mL

CC[C@H](C)[C@H](NC(=O)CNC(=O)[C@@H](NC(=O)[C@H](CCCCN)NC(=O)[C@H](CCCCN)NC(=O)[C@@H](NC(=O)[C@H](Cc1ccccc1)NC(=O)[C@H](CCCCN)NC(=O)[C@H](CCCCN)NC(=O)[C@H](Cc1c[nH]c2ccccc12)NC(=O)[C@@H](N)CCCCN)[C@@H](C)CC)[C@@H](C)CC)C(=O)NCC(=O)N[C@@H](C)C(=O)N[C@H](C(=O)N[C@@H](CC(C)C)C(=O)N[C@@H](CCCCN)C(=O)N[C@H](C(=O)N[C@@H](CC(C)C)C(=O)N[C@H](C(=O)N[C@H](C(=O)NCC(=O)N[C@@H](CC(C)C)C(=O)N1CCC[C@H]1C(=O)N[C@@H](C)C(=O)N[C@@H](CC(C)C)C(=O)N[C@@H](CCCCN)C(=O)N[C@@H](CC(C)C)C(=O)N[C@H](C(=O)N[C@@H](CCCCN)C(=O)N[C@@H](CCCCN)C(=O)O)[C@@H](C)O)[C@@H](C)O)[C@@H](C)O)C(C)C)C(C)C [CPα2]
Survival post bacterial challenge, surviving mice [1, 6]: 13 | Survival post bacterial challenge, surviving mice ([1]; double dose, 24 hr): 13 | Survival post bacterial challenge, surviving mice ([1]; double dose, 41 hr): 12 | Survival post bacterial challenge, surviving mice ([1]; double dose, 48 hr): 9 | Survival post bacterial challenge, surviving mice ([1]; double dose, 64 hr): 6 | Survival (%) post bacterial challenge ([1]; double dose, 64 hr): 46% | Survival post bacterial challenge, surviving mice ([1]; double dose, 72 hr): 6 | Survival (%) post bacterial challenge ([1]; double dose, 72 hr): 46% | Survival post bacterial challenge, surviving mice ([1]; double dose, 96 hr): 5 | Survival (%) post bacterial challenge ([1]; double dose, 96 hr): 38% | Survival post bacterial challenge, surviving mice [1, 7]: 15 | Survival post bacterial challenge, surviving mice ([1]; single dose, 24 hr): 15 | Survival post bacterial challenge, surviving mice ([1]; single dose, 41 hr): 13 | Survival post bacterial challenge, surviving mice ([1]; single dose, 48 hr): 13 | Survival post bacterial challenge, surviving mice ([1]; single dose, 64 hr): 13 | Survival (%) post bacterial challenge ([1]; single dose, 64 hr): 86% | Survival post bacterial challenge, surviving mice ([1]; single dose, 72 hr): 12 | Survival (%) post bacterial challenge ([1]; single dose, 72 hr): 80% | Survival post bacterial challenge, surviving mice ([1]; single dose, 96 hr): 12 | Survival (%) post bacterial challenge ([1]; single dose, 96 hr): 80% | FIC for combination of cationic peptide and lysozyme (P. aeruginosa (H103)): 0.56 | Lowest [CP] showing synergy (P. aeruginosa (H103)): 10.4 µg/mL | Lowest [Lyso] showing synergy (P. aeruginosa (H103)): 62.5 µg/mL | FIC for combination of cationic peptide and lysozyme (E. coli [2]): 0.31 | Lowest [CP] showing synergy (E. coli [2]): 0.65 µg/mL | Lowest [Lyso] showing synergy (E. coli [2]): 7.8 µg/mL | FIC for combination of cationic peptide and lysozyme (Salmonella typhi): 0.63 | Lowest [CP] showing synergy (Salmonella typhi): 2.61 µg/mL | Lowest [Lyso] showing synergy (Salmonella typhi): 125 µg/mL | MIC E. coli (E. coli [3]): 2 µg/mL | MIC S. aureus K147 (S. aureus K147): 16 µg/mL | MIC S. aureus (S. aureus): 16 µg/mL | MIC P. aeruginosa (P. aeruginosa): 6 µg/mL | (B) MIC of Cipro when combined with peptide [4]: .125 µg/mL | FIC index [4]: .75 | MIC A MIC of Peptides [4]: 2 µg/mL | (A) Peptide doses together with Cipro [4]: 1 µg/mL | (B) MIC of Carb when combined with peptide [5]: 32 µg/mL | FIC index ([5]; peptide + Carbenicillin, about 0.5 or less synergy, 1.0 additivity, >1.0 antagonism): 1.0 | MIC A MIC of Peptides [5]: 2 µg/mL | (A) Peptide doses together with Carb [5]: 1 µg/mL
